In US8003621B2, “Drug carriers” (Nitto Denko Corporation, priority 2007, dated 2011):

Test system: red blood cell
Test: Hemolytic assay
Design: species or system nude mice
Settings: 0.2% TritonX-100, 100 μL/well with 10 μL of blood sample; 60 minutes at 37° C.
Description: Blood samples of nude mice were collected in heparinize-tubes and were centrifuged at 700×g for 10 minutes. The supernatant was discarded, and the red blood cell pellet was washed three times with cold PBS (pH 7.4) and was re-suspended in the same buffer. Solutions of the polymers and the siEGFP of different concentrations were prepared in PBS buffers and were added to the round-bottom plate at 100 μL/well. Blood sample (10 μL) was added to each well, and the plate was incubated for 60 minutes at 37° C. The release of hemoglobin was determined by photospectrometric analysis after centrifugation (700 g for 10 min). The supernatant (100 μL) from each well was transferred into flat-bottom plate. Intensity of […] at 540 nm was measured by a plate reader.

In the case of TritonX-100, the “hemolysis (control value)” value is reported as 100%.
